Test results taken from the NIST ThermoML archive (doi:10.1021/acs.jced.5b00597).
Several values for one entry are separate records, joined by “and”; a condition that tells them apart may be missing. Equal entries are not always repeated.

Assay: molar heat capacity at constant pressure
Settings: Liquid, Flow calorimetry

FC(F)CC(F)(F)F [1,1,1,3,3-pentafluoropropane]
Settings	molar heat capacity at constant pressure
277.89 K, 518.3 kPa	170.11 J/K/mol
277.9 K, 519 kPa	171.31 J/K/mol
282.87 K, 509.6 kPa	171.72 J/K/mol
282.87 K, 511 kPa	172.65 J/K/mol
287.9 K, 513.9 kPa	173.46 J/K/mol
287.92 K, 512.5 kPa	173.46 J/K/mol and 171.85 J/K/mol
292.91 K, 518.1 kPa	179.09 J/K/mol
297.89 K, 514.6 kPa	177.61 J/K/mol and 177.21 J/K/mol
302.89 K, 517.2 kPa	178.42 J/K/mol
302.9 K, 518 kPa	179.09 J/K/mol
307.87 K, 519.5 kPa	181.23 J/K/mol
307.88 K, 504.1 kPa	181.1 J/K/mol
307.88 K, 514.4 kPa	182.17 J/K/mol [middle of 4 runs]
307.88 K, 808.1 kPa	181.5 J/K/mol
307.89 K, 517.9 kPa	182.71 J/K/mol
307.89 K, 518.2 kPa	181.77 J/K/mol
307.89 K, 522.2 kPa	181.63 J/K/mol
307.92 K, 415.8 kPa	180.7 J/K/mol
307.93 K, 520.4 kPa	182.71 J/K/mol
312.89 K, 514.5 kPa	181.77 J/K/mol
313.89 K, 520.4 kPa	180.96 J/K/mol
317.9 K, 522.2 kPa	183.24 J/K/mol
317.9 K, 522.6 kPa	181.9 J/K/mol
322.94 K, 518.4 kPa	185.66 J/K/mol
322.95 K, 517.7 kPa	184.85 J/K/mol and 184.58 J/K/mol
327.96 K, 806.4 kPa	187.13 J/K/mol
327.97 K, 808.9 kPa	185.92 J/K/mol
332.97 K, 815 kPa	189.41 J/K/mol
332.97 K, 816.5 kPa	187.8 J/K/mol
337.98 K, 810.3 kPa	190.62 J/K/mol
342.96 K, 817.2 kPa	192.22 J/K/mol
342.99 K, 813.6 kPa	192.49 J/K/mol
